Data set [1] has as its target Abl (T315I) (Homo sapiens, UniProt P00519, T315I). In words: Abl kinase activity assay (fluorescent ELISA, AblTide substrate). It counts as biochemical. The procedure: The disclosed compounds were assayed for their ability to inhibit the activity of ABL kinase. Nunc Maxisorb plates are coated with streptavidin by overnight incubation with 100 μL per well of 1 μg/mL streptavidin in DPBS. Prior to the start of the experiment, the plates are washed with TBST (3×200 μL) and blocked for at least 3 hours by adding 150 μL of 5% BSA/TBST. The plates are washed with TBST (3×200 μL/well) and left dry immediately before the capture step.
The test articles and controls (Gleevec) are prepared using the following assay buffer @ 10× desired final concentration (50 mM Tris pH 7.0, 0.02 mg/ml BSA, 10 mM MgCl2, 0.1 mM Na3VO4, 1 mM EGTA, 0.01% NP-40, 1 mM DTT in 10% glycerol/water). In a reaction plate are added rapidly 5 μL test article (or control) and 30 μL ABL or ABL T315I (0.089 nM final concentration, in the above buffer). The plate is incubated for 20 minutes. To the reaction plate is added ATP (100 μM final concentration) and AblTide (128 nM final concentration) in a volume of 15 μL. The plate is incubated at room temperature for one hour.
From the reaction plate, 40 μL is transferred to the streptavidin coated plate. The capture plate is incubated at room temperature for 30 minutes then washed 3× with TBST. To the capture plate is added 100 μL/well of Cell Signaling anti-phospho tyrosine at a dilution of 1:3000 in 2% BSA/TBST. The plate is incubated for two hours at room temperature then washed 3× with TBST. To the capture plate is added 100 μL/well of Alkaline Phosphatase Tagged Goat anti Mouse Antibody at a dilution of 1:4000 in 2% BSA/TBST. The plate is incubated for one hour at room temperature then washed 3× with TBST.
The fluorescent readout was initiated by the addition of 100 μL/well of Attophos reagent (6 mg/10 mL). The reading was done on the Perkin Elmer Envision system.

The subject of data set [2] is MDA-MB-231. In words: MTS assay, MDA-MB-231. The settings on record: Homo sapiens, MDA-MB-231, 72 h. It counts as cell-based. The procedure: (§1) Cells were maintained at 37° C., 5% CO2 in RPMI media supplemented with 1% fetal bovine serum, penicillin/streptomycin and fungizone (Invitrogen). Cells were seeded into 96-well tissue culture plates at 3000 per well and cultured at 37° C. for 18 h. Test compounds were dissolved and diluted to 300× in DMSO then diluted 1:40 in DMEM. Cells were incubated with test compounds for 72 hours followed by incubation with tetrazolium compound (3-(4,5-dimethylthiazol-2-yl)-5-(3-carboxymethoxyphenyl)-2-(4-sulfophenyl)-2H-tetrazolium, inner salt; MTS) and the electron coupling reagent, phenazine methosulfate (PMS) for 4 hours. […] The ability of compounds to inhibit cell growth in this assay is correlated with the reduction of dehydrogenase enzyme activity found in metabolically active cells. The measurement of the absorbance of the formazan was assessed using an ENVISION™ (Perkin Elmer) microplate reader at 492 nm. The calculated IC50 value is the concentration of the test compound that causes a 50% decrease in the absorbance.

Data set [3] deals with DLD-1. In words: MTS assay, DLD-1. Format: cell-based. Conditions: Homo sapiens, DLD-1, 72 h. The procedure:
as §1

The target of data set [4] is T1, FGFR2 (N549H) (Homo sapiens, UniProt P21802, N549H).
T1 construct: purchased Millipore 14-742
T1 sequence (P21802 22-821 N549H): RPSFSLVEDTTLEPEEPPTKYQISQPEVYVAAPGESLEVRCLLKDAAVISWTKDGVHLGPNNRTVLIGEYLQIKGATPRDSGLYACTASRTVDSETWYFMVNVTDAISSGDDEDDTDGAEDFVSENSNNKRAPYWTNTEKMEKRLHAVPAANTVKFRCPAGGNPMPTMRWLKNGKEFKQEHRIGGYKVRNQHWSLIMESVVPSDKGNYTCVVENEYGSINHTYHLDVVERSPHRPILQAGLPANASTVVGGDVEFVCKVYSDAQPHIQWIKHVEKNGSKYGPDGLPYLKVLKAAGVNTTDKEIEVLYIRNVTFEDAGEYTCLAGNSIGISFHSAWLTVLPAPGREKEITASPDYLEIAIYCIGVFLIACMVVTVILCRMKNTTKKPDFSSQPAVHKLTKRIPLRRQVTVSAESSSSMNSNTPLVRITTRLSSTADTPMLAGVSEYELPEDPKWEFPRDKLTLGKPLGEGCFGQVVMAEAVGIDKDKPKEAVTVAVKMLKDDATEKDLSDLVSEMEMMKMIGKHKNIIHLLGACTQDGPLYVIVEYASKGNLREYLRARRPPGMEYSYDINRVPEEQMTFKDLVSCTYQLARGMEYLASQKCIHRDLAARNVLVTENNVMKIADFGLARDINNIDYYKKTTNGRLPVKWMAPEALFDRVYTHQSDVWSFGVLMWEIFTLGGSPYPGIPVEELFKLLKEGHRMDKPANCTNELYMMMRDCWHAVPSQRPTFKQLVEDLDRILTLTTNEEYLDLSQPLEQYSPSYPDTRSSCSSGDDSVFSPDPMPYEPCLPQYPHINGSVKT
In words: FGFR2 kinase activity assay (fluorescent ELISA). Format: biochemical. The procedure:
The enzymatic assays described herein are conducted according to the following procedures from commercially available reagents. In one, non limiting, example, a fluorescent ELISA assay is used to identify and characterize inhibitors of FGFR2 kinase as described herein. This heterogeneous assay utilizes a biotinylated peptide with a tyrosine motif as a substrate and an anti-phospho-tyrosine antibody to measure phosphorylation of the substrate. The reaction is initiated by adding the test compound, 37 μM Pyk2 substrate (Midwest Biotech, Cat. # MBT2383), 12.5 μM ATP (Roche, Cat. #11 140 965 001) and 0.5 μM FGFR2 enzyme (Millipore, Cat. #14-742) sequentially to a non-binding polypropylene V-well plate. All reagents are in an assay buffer consisting of: 50 mM Tris-HCL, 0.02 mg/ml BSA, 10 mM MgCl2, 0.1 mM Na3VO4, 1 mM EGTA, 75 μM ATP, 0.01% NP-40, 2 mM DTT and 10% glycerol. The reaction is incubated for 60 minutes. As the reaction proceeds, FGFR2 phosphorylates tyrosines in the peptide. The reaction mixture is then moved to a blocked streptavidin-coated Nunc Maxisorb plate (coated with 100 ng streptavidin from Pierce (Cat. #15-124) per well), allowing for the capture of the biotinylated peptide. Peptides are captured for 30 minutes at room temperature, the phosphorylation of peptides continues during this phase. The reaction is stopped by washing the streptavidin-coated plate 6 times with TBST. Phosphorylated peptide is detected by adding anti-phospho-tyrosine antibody (Cell Signaling, Cat. #9411, diluted 1:3000) to the streptavidin-coated plate. Unbound anti-phospho-tyrosine antibody is removed by washing the streptavidin-coated plate 6 times with TBST. Secondary detection is performed using alkaline phosphatase tagged goat anti-mouse antibody (Pierce, Cat. #31320, diluted 1:4000) for one hour. Unbound secondary antibody is removed by washing the streptavidin-coated plate 6 times with TBST. The fluorescent readout is initiated by adding to the streptavidin-coated plate Promega Attophos substrate (Promega, Cat. # S1000, dilution=6 mg/10 ml), which, when dephosphorylated by alkaline phosphatase, emits a fluorescent signal of 595 nm in wavelength when excited by a signal of 400 nm in wavelength. The reading of the 595 nm signal is done on the Perkin Elmer Envision system. Compounds which prevent FGFR2 from phosphorylating the peptide result in a lower fluorescent signal. The 595 nm fluorescent signal is directly proportional to the activity of FGFR2. Thus, the inhibition of FGFR2 by compounds is monitored by the decrease in the 595 nm fluorescent signal.

Where a name gives a salt, the structure may show the parent alone.

`Cl.c1cc2c3c(c1)c(-c1ccnc(NCC4CCNCC4)n1)cn3CCC2`: the melting point was in the range of 192 to 194 °C.

Compound `Cl.c1cc2c3c(c1)c(-c1nnnn1C1CCNCC1)cn3CCC2` displayed a melting point of 198 to 200 °C.

With `CCOC(=O)CNC(=O)N1CCC(CNc2nccc(-c3cn4c5c(cccc35)CCC4)n2)CC1` (as salt: trifluoroacetate) [Compound 34, ethyl 2-(4-((4-(5,6-dihydro-4H-pyrrolo[3,2,1-ij]quinolin-1-yl)pyrimidin-2-ylamino)methyl)piperidine-1-carboxamido)acetate], the melting point was in the range of 170 to 172 °C.

As to `O=S(=O)(c1ccc(Cl)cc1)N1CCC(CNc2nccc(-c3cn4c5c(cccc35)CCC4)n2)CC1` (as salt: trifluoroacetate) [Compound 35, N-((1-(4-chlorophenylsulfonyl)piperidin-4-yl)methyl)-4-(5,6-dihydro-4H-pyrrolo[3,2,1-ij]quinolin-1-yl)pyrimidin-2-amine], the melting point was 140 to 142 °C.

On to `CC(C)(C)C(=O)N1CCC(CNc2nccc(-c3cn4c5c(cccc35)CCC4)n2)CC1` (as salt: trifluoroacetate) [Compound 36, 1-(4-((4-(5,6-dihydro-4H-pyrrolo[3,2,1-ij]quinolin-1-yl)pyrimidin-2-ylamino)methyl)piperidin-1-yl)-2,2-dimethylpropan-1-one], for which the melting point was in the range of 170 to 172 °C.

As for `O=c1[nH][nH]c(-c2ccccc2)c1-c1cn2c3c(cccc13)CCC2` [Compound 10, 4-(5,6-dihydro-4H-pyrrolo[3,2,1-ij]quinolin-1-yl)-5-phenyl-1,2-dihydro-3H-pyrazol-3-one], the inhibition at 10 µM in data set [1] stood at 25%; in data set [2] it was 37%; in data set [3] it was 46%.

For the compound `O=c1[nH][nH]c(-c2ccc(Cl)cc2)c1-c1cn2c3c(cccc13)CCC2` [Compound 11, 5-(4-chlorophenyl)-4-(5,6-dihydro-4H-pyrrolo[3,2,1-ij]quinolin-1-yl)-1,2-dihydro-3H-pyrazol-3-one], the results for the inhibition at 10 µM in data set [1], in data set [2] and in data set [3] were 13%, 97% and 97%, respectively.

With `O=c1[nH][nH]c(-c2cc3ccccc3s2)c1-c1cn2c3c(cccc13)CCC2` [Compound 12, 5-(1-benzothien-2-yl)-4-(5,6-dihydro-4H-pyrrolo[3,2,1-ij]quinolin-1-yl)-1,2-dihydro-3H-pyrazol-3-one], the figures for the inhibition at 10 µM in data set [1], in data set [2] and in data set [3] were 53%, 90% and 87%, respectively.

`O=c1[nH][nH]c(-c2ccc3ccccc3c2)c1-c1cn2c3c(cccc13)CCC2` [Compound 13, 4-(5,6-dihydro-4H-pyrrolo[3,2,1-ij]quinolin-1-yl)-5-(2-naphthyl)-1,2-dihydro-3H-pyrazol-3-one] displayed an inhibition at 30 µM in data set [4] of 94%. Moreover, the inhibition at 10 µM in data set [1] is 37%; in data set [2], 46%; in data set [3], 61%.

Regarding `CC(C)(C)Cc1[nH][nH]c(=O)c1-c1cn2c3c(cccc13)CCC2` [Compound 14, 4-(5,6-dihydro-4H-pyrrolo[3,2,1-ij]quinolin-1-yl)-5-(2,2-dimethylpropyl)-1,2-dihydro-3H-pyrazol-3-one], the inhibition at 10 µM in data set [1] was determined as 8%; in data set [2] it was 72%; in data set [3], 57%.

With `Cc1ccc(-c2[nH][nH]c(=O)c2-c2cn3c4c(cccc24)CCC3)cc1` [Compound 16, 4-(5,6-dihydro-4H-pyrrolo[3,2,1-ij]quinolin-1-yl)-5-(4-methylphenyl)-1,2-dihydro-3H-pyrazol-3-one], the inhibition at 10 µM in data set [1] came out at 83%; in data set [2], 63%; in data set [3], 78%.

With `O=c1[nH][nH]c(-c2ccc(Cl)cc2Cl)c1-c1cn2c3c(cccc13)CCC2` [Compound 17, 5-(2,4-dichlorophenyl)-4-(5,6-dihydro-4H-pyrrolo[3,2,1-ij]quinolin-1-yl)-1,2-dihydro-3H-pyrazol-3-one], the inhibition at 30 µM in data set [4] amounted to 48%. Moreover, the values for the inhibition at 10 µM in data set [1] and in data set [3] were 81% and 40%, respectively.

Consider `COc1ccc(-c2[nH][nH]c(=O)c2-c2cn3c4c(cccc24)CCC3)cc1` [Compound 18, 4-(5,6-dihydro-4H-pyrrolo[3,2,1-ij]quinolin-1-yl)-5-(4-methoxyphenyl)-1,2-dihydro-3H-pyrazol-3-one], for which the inhibition at 10 µM is 9% in data set [1], 59% in data set [2] and 72% in data set [3].

In data set [4], `CCOc1ccc2ccccc2c1-c1[nH][nH]c(=O)c1-c1cn2c3c(cccc13)CCC2` [Compound 22, 4-(5,6-dihydro-4H-pyrrolo[3,2,1-ij]quinolin-1-yl)-5-(2-ethoxy-1-naphthyl)-1,2-dihydro-3H-pyrazol-3-one] registered an inhibition at 30 µM of 41%. In data set [1], this compound had an inhibition at 10 µM of 11%.

The values are drawn from US8563567B2, “Substituted heterocyclic compounds” (ArQule, Inc., priority 2009, dated 2013).
